Laboratory results published in PubChem BioAssay (NCI).
Values joined by “and” are separate entries in the source; they are usually repeats but may differ in a detail not shown here. Identical values can stand only once.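 Compound exposure: 48 hours, 5 concentrations, 96-well plates. GI50 = concentration required for 50% inhibition of growth. TGI is the concentration that stops growth completely.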

Assays:
Test in all cases: growth of human tumour cells (NCI), 48 h
[1] = tested on: NCI-H23 lung
[2] = tested on: COLO 205 colon
[3] = tested on: CCRF-CEM leukemia
[4] = tested on: HCT-116 colon
[5] = tested on: DU-145 prostate
[6] = tested on: KM12 colon
[7] = tested on: LOX IMVI melanoma
[8] = tested on: K-562 leukemia
[9] = tested on: OVCAR-3 ovarian
[10] = tested on: MOLT-4 leukemia

Structure (SMILES): c1ccc(Nc2nc(-c3ccccn3)cs2)nc1
- GI50 [1]: 0.972 µM
- TGI [1]: > 32.7 µM
- GI50 [2]: 0.411 µM
- TGI [2]: 17.5 µM
- GI50 [3]: 0.259 µM
- TGI [3]: > 29.6 µM
- GI50 [4]: 0.326 µM
- TGI [4]: 21.6 µM
- GI50 [5]: 0.65 µM
- TGI [5]: > 100 µM
- GI50 [6]: 0.381 µM
- TGI [6]: 15.9 µM
- GI50 [7]: 0.255 µM
- TGI [7]: 6.67 µM
- GI50 [8]: 0.413 µM
- TGI [8]: > 57.2 µM
- GI50 [9]: 0.273 µM
- TGI [9]: 19.6 µM
- GI50 [10]: 0.301 µM
- TGI [10]: > 27.2 µM

Structure (SMILES): COc1cc2nc(-c3ccc(Cl)cc3)cc(OCCCN3CCCC3)c2cc1OC
- GI50 [1]: 2.45 µM
- TGI [1]: 12.1 µM
- GI50 [2]: 0.459 µM
- TGI [2]: 3.12 µM
- GI50 [3]: 2.14 µM
- TGI [3]: 7.09 µM
- GI50 [4]: 0.699 µM
- TGI [4]: 10.1 µM
- GI50 [5]: 2.15 µM
- TGI [5]: 13.8 µM
- GI50 [6]: 2.46 µM
- TGI [6]: 10.2 µM
- GI50 [7]: 0.191 µM
- TGI [7]: 0.446 µM
- GI50 [8]: 1.06 µM
- TGI [8]: 4.68 µM
- GI50 [9]: 2.71 µM
- TGI [9]: 13.1 µM
- GI50 [10]: 1.5 µM
- TGI [10]: 3.47 µM

Structure (SMILES): O=C(c1ccco1)c1c(C(F)(F)F)nc2ccc(C(F)(F)F)cc2[n+]1[O-]
- GI50 [1]: > 80.4 µM
- TGI [1]: > 100 µM
- GI50 [2]: > 100 µM
- TGI [2]: > 100 µM
- TGI [3]: > 49.4 µM
- GI50 [4]: 29.3 µM
- TGI [4]: > 100 µM
- GI50 [5]: 27.3 µM
- TGI [5]: > 75.8 µM
- GI50 [6]: 68 µM
- TGI [6]: > 100 µM
- GI50 [7]: 47.8 µM
- TGI [7]: > 100 µM
- GI50 [8]: > 73.8 µM
- TGI [8]: > 100 µM
- GI50 [9]: 28 µM
- TGI [9]: > 75.1 µM
- GI50 [10]: > 100 µM
- TGI [10]: > 100 µM

Structure (SMILES): Clc1cc2c(nn1)Nc1ccccc1S2
- GI50 [1]: > 100 µM
- TGI [1]: > 100 µM
- GI50 [2]: > 100 µM
- TGI [2]: > 100 µM
- GI50 [3]: > 100 µM
- TGI [3]: > 100 µM
- GI50 [4]: > 100 µM
- TGI [4]: > 100 µM
- GI50 [5]: > 100 µM
- TGI [5]: > 100 µM
- GI50 [6]: > 100 µM
- TGI [6]: > 100 µM
- GI50 [7]: > 100 µM
- TGI [7]: > 100 µM
- GI50 [8]: > 100 µM
- TGI [8]: > 100 µM
- GI50 [9]: > 100 µM
- TGI [9]: > 100 µM
- GI50 [10]: > 100 µM
- TGI [10]: > 100 µM

Structure (SMILES): CSCC[C@H](NC(=O)[C@H](CC(C)C)NC(=O)[C@@H](Cc1ccccc1)NC(=O)CNC(=O)[C@@H](NC(=O)[C@H](C)NC(=O)[C@H](Cc1c[nH]c2ccccc12)NC(=O)[C@H](CCC(N)=O)NC(=O)[C@H](N)CC(N)=O)C(C)C)C(N)=O
- TGI [1]: > 12.5 µM
- TGI [2]: > 12.5 µM
- TGI [3]: > 12.5 µM
- TGI [4]: > 12.5 µM
- TGI [5]: > 12.5 µM
- TGI [6]: > 12.5 µM
- TGI [7]: > 12.5 µM
- TGI [8]: > 12.5 µM
- TGI [9]: > 12.5 µM
- TGI [10]: > 12.5 µM

Structure (SMILES): N#Cc1ccsc1NC(=O)COC(=O)c1cccc(S(=O)(=O)N2CCc3ccccc32)c1
- GI50 [1]: 38.9 µM
- TGI [1]: > 100 µM
- GI50 [2]: 27.5 µM
- TGI [2]: > 100 µM
- GI50 [3]: 14.5 µM
- TGI [3]: > 100 µM
- GI50 [4]: 4.78 µM
- TGI [4]: > 100 µM
- GI50 [5]: 33.7 µM
- TGI [5]: > 100 µM
- GI50 [6]: 38.6 µM
- TGI [6]: > 100 µM
- GI50 [7]: 7.69 µM
- TGI [7]: > 100 µM
- GI50 [8]: 21.3 µM
- TGI [8]: > 100 µM
- GI50 [9]: 53.7 µM
- TGI [9]: > 100 µM
- GI50 [10]: 6.68 µM
- TGI [10]: > 100 µM

Structure (SMILES): Cc1cc2nc3ccc(=[N+](C)C)cc-3sc2cc1N
- GI50 [1]: 0.388 µM and 0.381 µM
- TGI [1]: 2.78 µM and 9.3 µM and 2.51 µM
- GI50 [2]: 0.745 µM and 0.309 µM
- TGI [2]: 2.19 µM and 9.28 µM and 0.94 µM
- GI50 [3]: 0.279 µM and 0.31 µM
- GI50 [4]: 0.226 µM and 0.232 µM
- TGI [4]: 1.2 µM and 5.03 µM and 0.98 µM
- GI50 [5]: 1.19 µM and 1.69 µM
- GI50 [6]: 0.401 µM and 0.771 µM
- TGI [6]: 2.28 µM and 18.1 µM and 2.95 µM
- GI50 [7]: 0.27 µM and 0.301 µM
- TGI [7]: 1.37 µM and 8.39 µM and 1.4 µM
- GI50 [8]: 0.201 µM and 0.318 µM
- GI50 [9]: 0.178 µM and 0.26 µM
- TGI [9]: 0.992 µM and 9.89 µM and 1.25 µM
- GI50 [10]: 0.237 µM and 0.363 µM

Structure (SMILES): C=C1COC(O)(C2OCOC(C3CC(=O)NC(=O)C3)C2O)C1C (stereo not drawn)
- GI50 [1]: 0.00267 µM
- TGI [1]: 0.0144 µM and 0.0338 µM
- GI50 [2]: 0.00292 µM
- TGI [2]: 0.0128 µM
- TGI [3]: 0.00744 µM
- GI50 [4]: 0.00288 µM
- TGI [4]: 0.0337 µM and 0.0335 µM
- GI50 [5]: 0.0125 µM
- TGI [5]: 0.0616 µM
- GI50 [6]: 0.00176 µM
- TGI [6]: 0.0212 µM
- GI50 [7]: 0.00234 µM
- TGI [7]: 0.00553 µM and 0.0217 µM
- GI50 [8]: 0.00241 µM
- TGI [8]: 0.0411 µM
- TGI [9]: 0.046 µM
- GI50 [10]: 0.00124 µM
- TGI [10]: 0.00804 µM and 0.00522 µM

Structure (SMILES): CN(C)CCC=C1c2ccccc2C(C)(C)c2ccccc21
- GI50 [1]: 14 µM
- TGI [1]: 28.9 µM
- GI50 [2]: 3.82 µM
- TGI [2]: 14.3 µM
- GI50 [3]: 9.84 µM
- TGI [3]: 28.4 µM
- GI50 [4]: 10.3 µM
- TGI [4]: 22.4 µM
- GI50 [5]: 14.3 µM
- TGI [5]: 27.3 µM
- GI50 [6]: 14.8 µM
- TGI [6]: 28.4 µM
- GI50 [7]: 9.46 µM
- TGI [7]: 22 µM
- GI50 [8]: 3 µM
- TGI [8]: 19 µM
- GI50 [9]: 15.2 µM
- TGI [9]: 28.5 µM
- GI50 [10]: 7.18 µM
- TGI [10]: 23 µM

Structure (SMILES): CC(=O)c1ccc(Nc2nc(Nc3ccc(F)cc3)nc(Nc3ccc(F)cc3)n2)cc1
- GI50 [1]: 35.7 µM
- TGI [1]: > 100 µM
- GI50 [2]: 5.61 µM
- TGI [2]: 43.7 µM
- GI50 [3]: 3.77 µM
- TGI [3]: > 100 µM
- GI50 [4]: 12.7 µM
- TGI [4]: > 100 µM
- GI50 [5]: 14.8 µM
- TGI [5]: 55.7 µM
- GI50 [6]: 8.67 µM
- TGI [6]: 97.9 µM
- GI50 [7]: 18.2 µM
- TGI [7]: > 100 µM
- GI50 [8]: 5.7 µM
- TGI [8]: > 100 µM
- GI50 [9]: 10.6 µM
- TGI [9]: 33 µM
- GI50 [10]: 4.39 µM
- TGI [10]: > 100 µM

Structure (SMILES): CN1CC[C@]2(c3cccc(O)c3)CC(=O)/C(=C/c3ccccc3)[C@H]1C2
- GI50 [1]: 2.87 µM
- TGI [1]: 10.8 µM
- GI50 [2]: 3.06 µM
- TGI [2]: 8.43 µM
- GI50 [3]: 2.53 µM
- TGI [3]: 9.36 µM
- TGI [4]: 7.29 µM
- GI50 [5]: 3.14 µM
- TGI [5]: 11.3 µM
- TGI [6]: 13.9 µM
- TGI [7]: 4.1 µM
- TGI [8]: 17.7 µM
- GI50 [9]: 2.64 µM
- TGI [9]: 6.95 µM
- TGI [10]: 6.96 µM
